17 compounds from ChEMBL document CHEMBL4387730, “Discovery of a new autophagy inducer for A549 lung cancer cells” (Bioorg Med Chem, 2019) can be followed below.

Data set [1] has as its system A549. The data set can be described thus: Cytotoxicity against human A549 cells assessed as reduction in viability at 0.1 to 20 uM after 24 hrs by SRB assay. The data set is classed as functional, cell-based. (In general: The SRB assay estimates cell density from bound dye.)
In data set [2] the test system is A549. The data set can be described thus: Cytotoxicity against human A549 cells assessed as reduction in viability at 0.1 to 20 uM after 48 hrs by SRB assay. The data set is classed as functional, cell-based.
Data set [3] has as its system A549. The data set can be described thus: Cytotoxicity against human A549 cells assessed as reduction in viability after 48 hrs by SRB assay. The following applies: A549, 48 h. The data set is classed as functional, cell-based.
Data set [4] deals with A549. The data set can be described thus: Induction of morphological changes in human A549 cells assessed as apoptotic body formation at 0.1 to 20 uM after 3 to 24 hrs by acridine orange staining based inverted phase contrast microscopic method. The data set is classed as functional, cell-based.
Data set [5] deals with A549. The data set can be described thus: Induction of autophagy in human A549 cells assessed as accumulation of acidic vesicles at 0.05 to 20 uM after 24 hrs by acridine orange staining based fluorescence microscopic method. In kind it is functional, cell-based.
In data set [6] the test system is A549. Description: Induction of autophagy in human A549 cells assessed as increase in […] expression at 1 to 10 uM after 24 hrs by Western blot analysis. In kind it is functional, cell-based. On the technique in general: A western blot detects proteins with antibodies after separation by electrophoresis.
Data set [7] has as its system A549. The data set can be described thus: Induction of necrosis in human A549 cells assessed as increase in LDH activity at 0.1 to 5 uM after 24 hrs by absorption spectrophotometric method. In kind it is cell-based. The following applies: a549, 24 h.
Data set [8] concerns A549. The data set can be described thus: Inhibition of autophagy flux in human A549 assessed as increase in p62 expression at 1 to 10 uM after 24 hrs by Western blot analysis. The data set is classed as functional, cell-based.
Data set [9] deals with A549. The data set can be described thus: Induction of apoptosis in human A549 cells assessed as increase in Cleaved-PARP expression at 1 to 10 uM after 24 hrs by Western blot analysis. In kind it is functional, cell-based.
In data set [10] the test system is A549. The data set can be described thus: Induction of necrosis in human A549 cells assessed as increase in LDH activity at 10 uM after 24 hrs by absorption spectrophotometric method. In kind it is cell-based. The following applies: a549, 24 h.
Data set [11] has as its target mTORC1 (Homo sapiens) (UniProt P42345+Q8N122+Q9BVC4). The data set can be described thus: Inhibition of mTORC1 in human A549 cells assessed as reduction in p70S6K phosphorylation at 10 uM after 3 to 24 hrs by Western blot analysis. In kind it is cell-based.
The test system of data set [12] is A549. The data set can be described thus: Induction of autophagic flux in human A549 cells assessed as increase in LC3-II protein level at 10 uM after 24 hrs in presence of V-ATPase inhibitor bafilomycin-A1 by Western blot analysis. In kind it is functional, cell-based.
Data set [13] relates to U-87 MG. The data set can be described thus: Induction of autophagy in human U87 cells transfected with GFP-fused LC3-II assessed as punctiform pattern of LC3-II at 1 to 10 uM after 24 hrs by laser scanning confocal microscopic method. The data set is classed as functional, cell-based. The following applies: U-87MG ATCC.
In data set [14] the test system is A549. The data set can be described thus: Induction of autophagy in human A549 cells assessed decrease in p62 expression at 1 to 10 uM after 24 hrs by Western blot analysis. The data set is classed as functional, cell-based.

Structures are written as SMILES. Calls of active or inactive are those of the source. The calls are words filed in the database; no cut-off is given here.

mTORC1 (Homo sapiens), sequence (Q8N122 whole entry, looked up, other chains not shown): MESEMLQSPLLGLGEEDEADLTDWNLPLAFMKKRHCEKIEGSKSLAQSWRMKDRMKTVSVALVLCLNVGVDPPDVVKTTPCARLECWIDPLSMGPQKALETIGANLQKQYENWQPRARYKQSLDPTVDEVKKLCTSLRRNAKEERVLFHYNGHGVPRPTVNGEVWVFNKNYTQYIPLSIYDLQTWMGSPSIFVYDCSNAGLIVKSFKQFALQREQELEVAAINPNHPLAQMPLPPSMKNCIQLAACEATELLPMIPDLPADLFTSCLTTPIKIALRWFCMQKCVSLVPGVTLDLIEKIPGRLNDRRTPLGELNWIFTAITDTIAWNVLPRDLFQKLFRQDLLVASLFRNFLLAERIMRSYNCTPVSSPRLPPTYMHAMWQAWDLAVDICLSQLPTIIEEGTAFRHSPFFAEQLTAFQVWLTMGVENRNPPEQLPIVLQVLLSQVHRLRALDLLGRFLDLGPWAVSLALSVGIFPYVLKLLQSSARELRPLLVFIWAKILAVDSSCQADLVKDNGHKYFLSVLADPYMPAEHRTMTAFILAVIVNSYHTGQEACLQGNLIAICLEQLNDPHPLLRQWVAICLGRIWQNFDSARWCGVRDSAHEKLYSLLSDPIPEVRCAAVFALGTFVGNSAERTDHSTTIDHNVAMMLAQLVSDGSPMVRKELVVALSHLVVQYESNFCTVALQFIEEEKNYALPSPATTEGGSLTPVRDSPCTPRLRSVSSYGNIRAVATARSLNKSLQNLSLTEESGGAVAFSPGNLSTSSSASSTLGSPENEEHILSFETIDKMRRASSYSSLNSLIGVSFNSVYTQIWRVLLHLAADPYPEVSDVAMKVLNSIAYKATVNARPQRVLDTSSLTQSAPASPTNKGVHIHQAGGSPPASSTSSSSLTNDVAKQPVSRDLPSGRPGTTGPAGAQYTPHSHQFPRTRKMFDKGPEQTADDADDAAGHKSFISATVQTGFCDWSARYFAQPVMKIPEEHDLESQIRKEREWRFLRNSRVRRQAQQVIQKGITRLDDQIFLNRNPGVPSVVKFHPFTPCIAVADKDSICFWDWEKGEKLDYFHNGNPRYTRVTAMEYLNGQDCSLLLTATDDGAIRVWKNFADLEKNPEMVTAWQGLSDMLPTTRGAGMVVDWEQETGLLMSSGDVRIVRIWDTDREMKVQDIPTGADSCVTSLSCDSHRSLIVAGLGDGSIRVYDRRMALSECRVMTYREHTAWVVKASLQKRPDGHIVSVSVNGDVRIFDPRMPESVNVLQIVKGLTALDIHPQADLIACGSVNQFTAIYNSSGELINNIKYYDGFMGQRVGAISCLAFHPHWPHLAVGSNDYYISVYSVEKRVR
mTORC1 (Homo sapiens), sequence (Q9BVC4 whole entry, looked up, other chains not shown): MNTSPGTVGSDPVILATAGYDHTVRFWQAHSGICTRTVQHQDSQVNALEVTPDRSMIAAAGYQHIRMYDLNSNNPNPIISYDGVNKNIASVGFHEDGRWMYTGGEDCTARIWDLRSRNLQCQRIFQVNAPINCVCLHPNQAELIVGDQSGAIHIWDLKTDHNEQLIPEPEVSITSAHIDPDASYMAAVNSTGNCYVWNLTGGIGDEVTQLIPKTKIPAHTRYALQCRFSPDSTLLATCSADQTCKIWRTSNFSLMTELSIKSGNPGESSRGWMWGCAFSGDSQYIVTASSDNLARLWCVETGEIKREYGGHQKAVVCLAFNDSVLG

With `CC1=[N+](C)c2ccccc2C1(C)C`, the result in data set [1] and in data set [2] was inactive.

For `O=C(O)c1ccc(-c2oc3ccccc3c(=O)c2O)cc1`, the result in data set [1] and in data set [2] was inactive.

As for `O=C(O)c1ccc(N2C(=O)c3cccc4cccc(c34)C2=O)cc1`, the result in [1] and in data set [2] was inactive.

The IC50 is the point on the concentration scale where inhibition reaches its midpoint. As for `O=c1[nH]cc(F)c(=O)[nH]1` [FLUOROURACIL], the outcome in data set [1] and in [2] was Active. The IC50 in data set [3] is 7.1 µM.

As for `CC1(C)CC(/C=C/c2ccc(N3CCNCC3)cc2)=CC(=C(C#N)C#N)C1`, the outcome in data set [4], in data set [5], in [6], in data set [1], in [2] and in [9] was Active. In addition, the Activity result is reported as “Non-Toxic” in data set [7] and “Toxic” in data set [10]. Further, in data set [8], the inhibition entry was “Active”. The IC50 in data set [3] was 7.1 µM.

For `C[N+]1=C(/C=C/c2ccc(N3CCNCC3)cc2)C(C)(C)c2ccccc21`, the outcome in data set [1] and in [2] was Active. Also, the half-inhibitory concentration (IC50) in data set [3] was 13.6 µM.

Turning to `CCN(CC)c1ccc2cc(-c3ccc(N)cc3)c(=O)oc2c1`, the outcome in [1] and in data set [2] was inactive.

With `C[N+]1=C(/C=C/c2ccc(N)cc2)C(C)(C)c2ccccc21`, the result in data set [1] and in data set [2] was Active. In data set [3], the IC50 came to 3.9 µM.

`Cc1cc[n+](CCCN2c3ccccc3S(=O)(=O)c3cc(C(=O)O)ccc32)cc1`: the outcome in [1] and in data set [2] was inactive.

On to `O=Cc1ccc2c(c1)c1ccccc1n2CCCCl`, for which the result in [1] and in [2] was inactive.

Turning to `CCN(CC)c1ccc2cc(-c3ccc(C)cc3)c(=O)oc2c1`, the result in [1] and in data set [2] was inactive.

In the case of `O=C(O)c1ccc2c(c1)S(=O)(=O)c1ccccc1N2CCCCl`, the outcome in [1] and in [2] was inactive.

`O=Cc1ccc2c(c1)c1ccccc1n2CCCN1CCNCC1`: the result in data set [1] and in data set [2] was inactive.

As for `CCN(CC)C(=O)c1ccc(-c2oc3ccccc3c(=O)c2O)cc1`, the outcome in data set [1] and in data set [2] was inactive.

On to `O=C1OC(=O)c2ccc(N3CCCC3)c3cccc1c23`, for which the result in [1] and in data set [2] was inactive.

On to `C[N+]1=C(/C=C/c2ccc(N3CCCCC3)cc2)C(C)(C)c2ccccc21.[I-]`, for which the outcome in data set [4], in [5], in [6], in [1], in data set [2] and in data set [12] was Active. The result in data set [9] and in data set [14] was Active. Also, in data set [11], the inhibition result was “Active”. Also, the Activity entry was “Non-Toxic” in data set [7], “Dose-dependent effect” in data set [13] and “Non-Toxic” in [10]. Besides, in [3], the IC50 was found to be 1.1 µM.

Turning to `CCN(CC)c1ccc2ccc(=O)oc2c1`, the result in data set [1] and in data set [2] was inactive.
